In article PMC4336573 (Chemistry & biology, 2015):

Molecular target: T1, CBX7ChD (Homo sapiens, UniProt O95931)
T1 sequence (O95931 11-69 limits assumed): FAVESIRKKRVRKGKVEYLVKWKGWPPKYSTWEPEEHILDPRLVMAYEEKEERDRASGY
Format: binding

Row | Structure (SMILES) | IC50 [µM]
1 | Cc1cc(-c2ccc(/N=N/c3ccc4c(S(=O)(=O)O)cc(S(=O)(=O)O)c(N)c4c3O)c(C)c2)ccc1/N=N/c1ccc2c(S(=O)(=O)O)cc(S(=O)(=O)O)c(N)c2c1O [Evans blue] | 3.9
2 | O=C(O)c1cc(O)c2c(c1)[C@H]([C@H]1c3cc(C(=O)O)cc(O)c3C(=O)c3c(O[C@@H]4O[C@H](CO)[C@@H](O)[C@H](O)[C@H]4O)cccc31)c1cccc(O[C@@H]3O[C@H](CO)[C@@H](O)[C@H](O)[C@H]3O)c1C2=O [Sennoside A] | 33.3
3 | O=C(O)C1=CC(=C(c2ccc(O)c(C(=O)O)c2)c2ccc(O)c(C(=O)O)c2)C=CC1=O [Aurin tricarboxylic acid] | 5.5
4 | Cc1cc(-c2ccc(/N=N/c3c(S(=O)(=O)O)cc4cc(S(=O)(=O)O)cc(N)c4c3O)c(C)c2)ccc1/N=N/c1c(S(=O)(=O)O)cc2cc(S(=O)(=O)O)cc(N)c2c1O [Trypan blue] | 7.5
